Details of data set [1]: method as in doi:10.1016/j.colsurfa.2004.10.066. Particulars: standard cationic surfactant; cited from earlier work.
Data set [2] deals with anti-miR-21 oligo(2′-O-methylribonucleotide). Briefly: DLS of dendriplexes with anti-miR-21 oligonucleotide. In kind it is physicochemical. Particulars: for mean diameter of dendriplex: 0.9% NaCl. How it is done: Dendriplexes were characterized by DLS using Zetasizer Nano-S (Malvern Panalytical, UK) equipped with a 632.8 nm laser, applying detection angle 173°. Mean diameters from the intensity-weighted size distribution are given. Average results from three consecutive sets of measurements generated by Malvern Zetasizer Software version 7.13 are presented.
Amphiphilic dendrons (1.5–73 μM) were mixed with the anti-miR-21:5′-m([…]) (500 nM) in 0.9% NaCl solution in milli-Q water. The dendrons’ concentrations were chosen to attain the charge ratio (CR, the ratio of cations over anions in the sample) of 1.2, 2.5, 5, 10, or 20. The samples were incubated for 15 min at rt prior to measurements.

Data set [3] deals with S. epidermidis—clinical isolate C1936. Briefly: Microdilution broth MIC. In kind it is cell-based. Particulars: Staphylococcus epidermidis, 24 h. How it is done: (§1) In vitro antibacterial activity of the prepared amp-DDNs (DnP6-1C12, DnP3-1C12, DnP3-2C12, and DnP3-2C18) was tested on a panel of four G+ (Staphylococcus aureus CCM 4516, methicillin-resistant S. aureus clinical isolate C1923, Staphylococcus epidermidis clinical isolate C1936, and vancomycin-resistant Enterococcus faecium clinical isolate S2484) and four G-bacterial strains (Escherichia coli K12, CCM 7929, E. coli clinical isolate A1235, extended-spectrum β-lactamase-producing (ESBL+) Klebsiella pneumoniae clinical isolate C1914, and multiresistant Pseudomonas aeruginosa clinical isolate A1245). CCM collection strains were obtained from the Czech Collection of Microorganisms. All clinical isolates were obtained during routine procedures in the clinical laboratory at the University Hospital Hradec Králové. All strains were stored at −70 °C in the Cryobank according to the manufacturer’s instructions. Subsequently, when needed, each bacterial strain was inoculated and cultivated on Mueller–Hinton agar (HiMedia, Cadersky-Envitek, Prague, Czech Republic).
(§2) The antibacterial susceptibility was determined by a microdilution broth method according to standard M07-A10,[55] and the optimized protocol has been published previously.[56],[57] Briefly, Mueller–Hinton broth (MHB) adjusted to pH 7.4 (±0.2) was used as the test medium. […] The wells of the microdilution tray contained 200 μL of the MHB with 2-fold serial dilutions of the compounds and were inoculated with 10 μL of the bacterial suspension. The bacterial suspensions were controlled densitometrically to reach 1.5 × 10^8 viable CFU per 1 mL. The minimum inhibitory concentration (MIC) values, defined as 95% inhibition of bacterial growth, were determined after 24 h of incubation at 35 °C ± 1 °C.
Background: Broth dilution looks for growth in wells or tubes with falling amounts of substance.

The subject of data set [4] is K. pneumoniae ESBL+—clinical isolate C1914. As to the kind of experiment: Microdilution broth MIC. The format is cell-based. Particulars: Klebsiella pneumoniae, 24 h. How it is done:
as §1, §2

Data set [5] deals with E. coli—clinical isolate A1235. As to the kind of experiment: Microdilution broth MIC. In kind it is cell-based. Particulars: Escherichia coli, 24 h. How it is done: as §1, §2
In data set [6] the test system is P. aeruginosa MR—clinical isolate A1245. As to the kind of experiment: Microdilution broth MIC. Particulars: Pseudomonas aeruginosa, 24 h. In kind it is cell-based. How it is done: as §1, §2
The test system of data set [7] is E. faecium VRE—clinical isolate S2484. Briefly: Microdilution broth MIC. Particulars: Enterococcus faecium, 24 h. In kind it is cell-based. How it is done: as §1, §2
For a further data set, the system named is S. aureus CCM 4516. Briefly: Microdilution broth MIC. In kind it is cell-based. Particulars: Staphylococcus aureus, CCM4516, 24 h. How it is done: as §1, §2
A further data set relates to E. coli K12, CCM 7929. Briefly: Microdilution broth MIC. In kind it is cell-based. Particulars: Escherichia coli, CCM7929, 24 h. How it is done:
as §1, §2

The test system of data set [8] is S. aureus MRSA—clinical isolate C1926. As to the kind of experiment: Microdilution broth MIC. The format is cell-based. Particulars: Staphylococcus aureus, 24 h.
The nature of data set [9]: Dynamic light scattering (DLS/MADLS) of micelles in physiological solution. The format is physicochemical. How it is done: The size of micelles and micellar aggregates was estimated by the dynamic light scattering (DLS) method using NanoBrook OMNI ZetaPALS (Brookhaven Instruments, USA) with a detection angle 90° and 640 nm laser. The presented diameters are mean values from the intensity-weighted size distribution. The composition of the samples was as follows: dendron (1.0 mM) and NaCl (0.9%) in deionized water. The solutions were sonicated for 30 min, filtered through 0.45 μm Nylon syringe filters (Avantor, USA), placed in standard polystyrene cuvettes (BI-SCP, Brookhaven Instruments), and stored at 4 °C. All measurements were conducted at 25 °C. Measurement time was set to 5 min, and each measurement was repeated 5 times. The analysis of data was performed using Brookhaven Instruments software Particle Solutions v3.6.07136.
MADLS and size dependence on concentration and pH were measured on Zetasizer Ultra Red (Malvern Panalytical, UK) equipped with a 632.8 nm laser, applying detection angles 12.78°, 90°, and 174.7° in the case of MADLS measurements and 12.78° for size dependence measurements. MADLS and concentration dependence were measured in DTS0012 polystyrene cuvettes (Malvern Panalytical, UK); pH dependence was studied by acidobasic titration in DTS1070 folded capillary Zeta cell, using MPT-3 Multipurpose Titrator and DEG0003 Auto Degasser (all Malvern Panalytical, UK). The concentration dependence measurement started at 1.0 mM and the samples were diluted 2-fold until the minimum concentration 0.06 mM. For each concentration, the measurement was repeated 3 times giving 15 measurements in total. The pH dependence measurement started at pH 12; the titration was performed with a step of 2 and at each step, the measurement was repeated 3 times, giving 18 measurements in total. Malvern Panalytical software ZS Xplorer version 3.3.1.5 was used for the analysis of data.

One may read the MIC as the lowest concentration found to suppress growth.

Molecules are shown by their SMILES.

For `CCCCCCCCCCCCCCCC[N+](C)(C)C` [cetyltrimethylammonium bromide], the CMC result in data set [1] is on record as “around 1 mM”.
Regarding `CCCCCCCCCCCCNC(=O)c1cc(OCCC[Si](CCCSCC(=O)NCCC[P+](c2ccccc2)(c2ccccc2)c2ccccc2)(CCCSCC(=O)NCCC[P+](c2ccccc2)(c2ccccc2)c2ccccc2)CCCSCC(=O)NCCC[P+](c2ccccc2)(c2ccccc2)c2ccccc2)cc(C(=O)NCCCCCCCCCCCC)c1` [DnP3-2C12], the PI of dendriplex in data set [2] (CR 1.2) was 0.11; in [2] (CR 2.5) it was 0.2; in [2] (CR 5), 0.3; in data set [2] (CR 10), 0.14; in data set [2] (CR 20) it was 0.17. Also, the “mean diameter of dendriplex” value in data set [2] (CR 1.2, anti-miR-21 500 nM) turned out to be 0.13 μm; in [2] (CR 2.5, anti-miR-21 500 nM), 0.8 μm; in data set [2] (CR 5, anti-miR-21 500 nM), 1.0 μm; in data set [2] (CR 10, anti-miR-21 500 nM), 0.18 μm; in [2] (CR 20, anti-miR-21 500 nM) it was 0.14 μm. Further, the MIC (in data set [3]; in data set [4]; in [5]; in [6]; in [7]; with S. aureus CCM 4516) was greater than 12.5 µM each time. For the same compound, the MIC in the data set with E. coli K12, CCM 7929 is greater than 12.5 µM; in data set [8], greater than 12.5 µM. Also, the PDI result in data set [9] (1.0 mM dendron, 0.9% NaCl) is “≈ 0.2”. The “mean size (DLS, intensity-weighted)” value in [9] (1.0 mM dendron, 0.9% NaCl, 25 °C, start of testing period) was 21 nm; in data set [9] (1.0 mM dendron, 0.9% NaCl, after 75 day testing period, stored at 4 °C), 25 nm. The “mean size of the second population (MADLS)” value in [9] (aggregates) came out at 37 nm. In addition, in data set [9] (isolated micelles), the “mean diameter of the smaller particles (MADLS)” value worked out at 10.0 nm.

These data come from article PMC11632778, “Adaptive Synthesis, Supramolecular Behavior, and Biological Properties of Amphiphilic Carbosilane-Phosphonium Dendrons with Tunable Structure” (Biomacromolecules, 2024).
